In patent US20090298820A1, “3-SUBSTITUTED-1H-PYRROLO[2,3-B]PYRIDINE AND 3-SUBSTITUTED-1H-PYRROLO[3,2-B]PYRIDINE COMPOUNDS, THEIR USE AS MTOR KINASE AND PI3 KINASE INHIBITORS, AND THEIR SYNTHESES” (Wyeth, priority 2008, published 2009):
pIC50: −log10 of the molar value. Like-named read-outs stand apart in the source and are kept apart here.

Columns and labels:
PI3Kα = PI3Kα (Homo sapiens, UniProt P42336); assay: PI3K-alpha fluorescence polarization assay; assay type: biochemical; conditions: read-out: PI3Kα Median IC50
PI3Kγ = PI3Kγ (Homo sapiens, UniProt P48736); assay: PI3K-gamma fluorescence polarization assay; assay type: biochemical; conditions: read-out: PI3Kγ Median IC50
mTOR = mTOR (Homo sapiens, UniProt P42345); assay: mTOR enzyme assay (DELFIA format, His6-S6K substrate); assay type: biochemical
[1] = read-out: mTOR Kinase Median IC50

Chain of PI3Kα (P42336 whole entry, species assumed): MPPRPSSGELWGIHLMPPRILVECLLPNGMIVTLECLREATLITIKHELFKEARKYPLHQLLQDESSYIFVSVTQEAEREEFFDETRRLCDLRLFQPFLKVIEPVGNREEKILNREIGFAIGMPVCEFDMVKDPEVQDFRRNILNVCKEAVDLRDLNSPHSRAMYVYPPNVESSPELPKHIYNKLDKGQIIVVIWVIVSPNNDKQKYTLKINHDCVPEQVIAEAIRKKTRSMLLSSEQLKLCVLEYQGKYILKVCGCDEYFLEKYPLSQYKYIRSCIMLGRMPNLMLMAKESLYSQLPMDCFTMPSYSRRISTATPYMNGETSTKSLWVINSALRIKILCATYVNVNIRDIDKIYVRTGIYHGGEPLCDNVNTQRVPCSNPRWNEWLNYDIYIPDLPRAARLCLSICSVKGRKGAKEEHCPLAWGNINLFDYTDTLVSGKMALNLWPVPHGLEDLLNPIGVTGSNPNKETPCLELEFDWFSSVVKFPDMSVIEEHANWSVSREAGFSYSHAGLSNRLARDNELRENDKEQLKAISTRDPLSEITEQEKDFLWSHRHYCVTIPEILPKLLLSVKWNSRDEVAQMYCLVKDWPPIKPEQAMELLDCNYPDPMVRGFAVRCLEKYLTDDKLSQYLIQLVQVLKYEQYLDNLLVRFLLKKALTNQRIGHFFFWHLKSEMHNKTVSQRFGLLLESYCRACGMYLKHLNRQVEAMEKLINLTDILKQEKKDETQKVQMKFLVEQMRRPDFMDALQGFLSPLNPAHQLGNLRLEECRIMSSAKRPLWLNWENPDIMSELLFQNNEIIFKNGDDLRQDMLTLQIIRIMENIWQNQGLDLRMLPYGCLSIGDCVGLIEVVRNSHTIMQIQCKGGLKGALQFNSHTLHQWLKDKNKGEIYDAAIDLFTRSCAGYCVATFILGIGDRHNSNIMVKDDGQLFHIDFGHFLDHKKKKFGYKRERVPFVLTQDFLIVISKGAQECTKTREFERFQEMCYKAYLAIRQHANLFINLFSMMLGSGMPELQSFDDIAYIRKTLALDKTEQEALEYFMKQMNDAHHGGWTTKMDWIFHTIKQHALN
Chain of PI3Kα (P27986 whole entry partner, species assumed): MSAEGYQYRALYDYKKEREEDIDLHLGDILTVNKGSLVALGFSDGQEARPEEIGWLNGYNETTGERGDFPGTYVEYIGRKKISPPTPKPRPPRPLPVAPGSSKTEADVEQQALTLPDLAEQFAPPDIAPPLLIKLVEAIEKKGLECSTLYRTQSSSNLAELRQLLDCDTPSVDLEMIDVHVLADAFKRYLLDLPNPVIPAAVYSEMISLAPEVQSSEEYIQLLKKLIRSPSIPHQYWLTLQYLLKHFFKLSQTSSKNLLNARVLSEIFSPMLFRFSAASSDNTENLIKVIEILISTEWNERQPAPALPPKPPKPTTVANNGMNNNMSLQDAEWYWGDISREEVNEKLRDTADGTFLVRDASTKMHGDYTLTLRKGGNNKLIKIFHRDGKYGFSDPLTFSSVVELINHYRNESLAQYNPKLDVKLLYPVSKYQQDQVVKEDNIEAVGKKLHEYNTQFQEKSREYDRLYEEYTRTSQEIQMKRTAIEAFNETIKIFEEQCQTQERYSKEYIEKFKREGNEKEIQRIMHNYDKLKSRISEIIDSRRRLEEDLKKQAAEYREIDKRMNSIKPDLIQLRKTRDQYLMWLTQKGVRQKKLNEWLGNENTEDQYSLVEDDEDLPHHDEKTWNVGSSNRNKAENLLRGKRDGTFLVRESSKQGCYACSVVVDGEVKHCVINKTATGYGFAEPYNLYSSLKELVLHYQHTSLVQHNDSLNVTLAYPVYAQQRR
Chain of PI3Kγ (P48736 whole entry, species assumed): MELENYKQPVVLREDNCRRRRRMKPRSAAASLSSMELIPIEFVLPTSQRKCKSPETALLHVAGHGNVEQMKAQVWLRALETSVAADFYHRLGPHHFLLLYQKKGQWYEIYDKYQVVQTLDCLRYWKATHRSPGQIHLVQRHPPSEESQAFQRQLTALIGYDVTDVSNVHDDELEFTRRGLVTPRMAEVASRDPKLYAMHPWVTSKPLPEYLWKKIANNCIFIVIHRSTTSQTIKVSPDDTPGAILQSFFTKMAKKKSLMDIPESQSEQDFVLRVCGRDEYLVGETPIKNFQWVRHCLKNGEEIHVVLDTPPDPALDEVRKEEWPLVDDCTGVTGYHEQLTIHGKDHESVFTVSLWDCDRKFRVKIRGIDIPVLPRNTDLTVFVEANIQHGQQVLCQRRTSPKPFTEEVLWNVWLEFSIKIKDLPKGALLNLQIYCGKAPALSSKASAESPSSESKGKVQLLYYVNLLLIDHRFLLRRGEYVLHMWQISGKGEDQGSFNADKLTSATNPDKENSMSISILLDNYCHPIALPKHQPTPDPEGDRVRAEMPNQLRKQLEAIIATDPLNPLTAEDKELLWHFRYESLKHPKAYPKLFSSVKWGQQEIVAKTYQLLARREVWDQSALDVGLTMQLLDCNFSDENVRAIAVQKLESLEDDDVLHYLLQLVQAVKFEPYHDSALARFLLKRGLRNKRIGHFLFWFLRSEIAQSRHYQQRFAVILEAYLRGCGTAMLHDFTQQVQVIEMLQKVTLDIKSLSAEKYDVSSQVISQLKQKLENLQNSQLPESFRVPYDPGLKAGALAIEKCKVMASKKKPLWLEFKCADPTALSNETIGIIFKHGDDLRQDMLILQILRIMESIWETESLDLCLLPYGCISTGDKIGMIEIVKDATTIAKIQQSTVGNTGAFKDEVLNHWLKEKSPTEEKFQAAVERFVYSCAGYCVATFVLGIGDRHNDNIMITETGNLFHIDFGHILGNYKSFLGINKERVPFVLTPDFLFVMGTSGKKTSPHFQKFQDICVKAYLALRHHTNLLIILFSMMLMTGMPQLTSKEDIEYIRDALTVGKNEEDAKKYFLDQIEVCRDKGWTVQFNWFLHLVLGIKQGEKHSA

Row | pIC50 (PI3Kα) | pIC50 (PI3Kγ) | pIC50 (mTOR; [1]) | melting point | SMILES | pIC50 (mTOR)
1 | 5.54 | 4.98 | 7.84 | 180 to 190 °C (dec.) | Cn1cc(/C=C2\Oc3ccc(NC(=O)Nc4cccnc4)cc3C2=O)c2c(N3CCC(C(=O)Nc4cccnc4)CC3)ccnc21 [Compound 262, 1-{1-methyl-3-[(Z)-{3-oxo-5-[(pyridin-3-ylcarbamoyl)amino]-1-benzofuran-2(3H)-ylidene}methyl]-1H-pyrrolo[2,3-b]pyridin-4-yl}-N-pyridin-3-ylpiperidine-4-carboxamide] | 
2 | 6.89 | < 5.00 | 7.65 | 352 to 354 °C (dec.) | Cn1cc(/C=C2\Oc3ccc(O)cc3C2=O)c2c(-c3ccccc3)ccnc21 [Compound 42, (2Z)-5-hydroxy-2-[(1-methyl-4-phenyl-1H-pyrrolo[2,3-b]pyridin-3-yl)methylene]-1-benzofuran-3(2H)-one] | 
3 | 6.25 | 5.95 | 7.89 | 222 to 226 °C | Cn1cc(/C=C2\Oc3ccc(NC(=O)Nc4cccnc4)cc3C2=O)c2c(N3CCOC(C)(C)C3)ccnc21 [Compound 301, 1-[(2Z)-2-{[4-(2,2-dimethylmorpholin-4-yl)-1-methyl-1H-pyrrolo[2,3-b]pyridin-3-yl]methylidene}-3-oxo-2,3-dihydro-1-benzofuran-5-yl]-3-pyridin-3-ylurea] | 
4 | 7.20 | 7.30 | 8.85 | 358 to 361 °C | Cn1cc(/C=C2\Oc3cccc(O)c3C2=O)c2c(N3CCC(C(=O)N4CCOCC4)CC3)ccnc21 [Compound 150, (2Z)-4-hydroxy-2-({1-methyl-4-[4-(morpholin-4-ylcarbonyl)piperidin-1-yl]-1H-pyrrolo[2,3-b]pyridin-3-yl}methylidene)-1-benzofuran-3(2H)-one] | 
5 | 5.22 | < 5.00 | 8.13 | 244 to 254 °C | Cn1cc(/C=C2\Oc3cccc(O)c3C2=O)c2c(-c3ccc(C(F)(F)F)cc3)ccnc21 [Compound 106, (2Z)-4-hydroxy-2-({1-methyl-4-[4-(trifluoromethyl)phenyl]-1H-pyrrolo[2,3-b]pyridin-3-yl}methylene)-1-benzofuran-3(2H)-one] | 
6 | 6.70 | 6.02 | 7.78 | 232 to 239 °C | Cn1cc(/C=C2\Oc3ccc(N)cc3C2=O)c2c(-c3ccccc3)ccnc21 [Compound 58, (2Z)-5-amino-2-[(1-methyl-4-phenyl-1H-pyrrolo[2,3-b]pyridin-3-yl)methylene]-1-benzofuran-3(2H)-one] | 
7 | 7.51 | 7.49 | 9.22 | 191 to 207 °C | Cn1cc(/C=C2\Oc3cccc(O)c3C2=O)c2c(N3CCC(C(=O)N4CCCC4)CC3)ccnc21 [Compound 152, (2Z)-4-hydroxy-2-({1-methyl-4-[4-(pyrrolidin-1-ylcarbonyl)piperidin-1-yl]-1H-pyrrolo[2,3-b]pyridin-3-yl}methylidene)-1-benzofuran-3(2H)-one] | 
8 | 5.39 | 5.41 | 8.05 | 208 to 216 °C | Cn1cc(/C=C2\Oc3ccc(NC(=O)Nc4cccnc4)cc3C2=O)c2c(N3CCC(C(=O)NCc4ccncc4)CC3)ccnc21 [Compound 271, 1-{1-methyl-3-[(Z)-{3-oxo-5-[(pyridin-3-ylcarbamoyl)amino]-1-benzofuran-2(3H)-ylidene}methyl]-1H-pyrrolo[2,3-b]pyridin-4-yl}-N-(pyridin-4-ylmethyl)piperidine-4-carboxamide] | 
9 | 7.47 | 7.00 | 6.71 | 255 to 256 °C | CN(C)CCNC(=O)c1ccc2c(c1)C(=O)/C(=C/c1cn(C)c3nccc(-c4ccccc4)c13)O2 [Compound 187, (2Z)-N-[2-(dimethylamino)ethyl]-2-[(1-methyl-4-phenyl-1H-pyrrolo[2,3-b]pyridin-3-yl)methylidene]-3-oxo-2,3-dihydro-1-benzofuran-5-carboxamide] | 
10 | 6.81 | 6.68 | 7.77 | 230 to 238 °C | Cn1cc(/C=C2\Oc3cccc(O)c3C2=O)c2c(N3CCC(CN)CC3)ccnc21 [Compound 115, (2Z)-2-({4-[4-(aminomethyl)piperidin-1-yl]-1-methyl-1H-pyrrolo[2,3-b]pyridin-3-yl}methylene)-4-hydroxy-1-benzofuran-3(2H)-one] | 
11 | 7.26 | 7.05 | 8.42 | 250 to 253 °C | CC(=O)c1ccc(-c2ccnc3c2c(/C=C2\Oc4cccc(O)c4C2=O)cn3C)cc1 [Compound 134, (2Z)-2-{[4-(4-acetylphenyl)-1-methyl-1H-pyrrolo[2,3-b]pyridin-3-yl]methylene}-4-hydroxy-1-benzofuran-3(2H)-one] | 
12 | 6.09 | < 5.00 | 7.82 | 235 to 240 °C | CC1CC(C)CN(c2ccnc3c2c(/C=C2\Oc4cccc(O)c4C2=O)cn3C)C1 (stereo not shown) [Compound 100, (2Z)-2-{[4-(3,5-dimethylpiperidin-1-yl)-1-methyl-1H-pyrrolo[2,3-b]pyridin-3-yl]methylene}-4-hydroxy-1-benzofuran-3(2H)-one] | 
13 | < 5.00 | 5.93 | 7.94 | 241 °C | CN(C)C(=O)C1CCN(c2ccnc3c2c(/C=C2\Oc4ccc(Br)cc4C2=O)cn3C)CC1 [Compound 169, 1-{3-[(Z)-(5-bromo-3-oxo-1-benzofuran-2(3H)-ylidene)methyl]-1-methyl-1H-pyrrolo[2,3-b]pyridin-4-yl}-N,N-dimethylpiperidine-4-carboxamide] | 
14 | 7.43 | 7.52 | 8.82 | 298 to 305 °C (dec.) | CNC(=O)Nc1ccc(-c2ccnc3c2c(/C=C2\Oc4cccc(O)c4C2=O)cn3C)cc1 [Compound 133, 1-(4-{3-[(Z)-(4-hydroxy-3-oxo-1-benzofuran-2(3H)-ylidene)methyl]-1-methyl-1H-pyrrolo[2,3-b]pyridin-4-yl}phenyl)-3-methylurea] | 
15 | 5.30 | 5.24 | 7.89 | 184 to 194 °C | CN(C(=O)C1CCN(c2ccnc3c2c(/C=C2\Oc4ccc(NC(=O)Nc5cccnc5)cc4C2=O)cn3C)CC1)c1cccnc1 [Compound 269, N-methyl-1-{1-methyl-3-[(Z)-{3-oxo-5-[(pyridin-3-ylcarbamoyl)amino]-1-benzofuran-2(3H)-ylidene}methyl]-1H-pyrrolo[2,3-b]pyridin-4-yl}-N-pyridin-3-ylpiperidine-4-carboxamide] | 
16 | 6.53 | 6.60 | 7.71 | 257 to 259 °C | Cn1cc(/C=C2\Oc3ccc(NC(=O)Nc4ccncc4)cc3C2=O)c2c(N3CC4CCC(C3)O4)ccnc21 [Compound 198, 1-[(2Z)-2-{[1-methyl-4-(8-oxa-3-azabicyclo[3.2.1]oct-3-yl)-1H-pyrrolo[2,3-b]pyridin-3-yl]methylidene}-3-oxo-2,3-dihydro-1-benzofuran-5-yl]-3-pyridin-4-ylurea] | 
17 | < 5.00 | 6.06 | 6.52 | 193 to 200 °C | Cn1cc(/C=C2\Oc3ccc(NC(=O)Nc4cccnc4)cc3C2=O)c2c(N3CC4CNCC(C3)O4)ccnc21 [Compound 293, 1-[(2Z)-2-{[1-methyl-4-(9-oxa-3,7-diazabicyclo[3.3.1]non-3-yl)-1H-pyrrolo[2,3-b]pyridin-3-yl]methylidene}-3-oxo-2,3-dihydro-1-benzofuran-5-yl]-3-pyridin-3-ylurea] | 
18 | 4.81 | 5.09 | 7.60 | 230 to 235 °C (dec.) | Cn1cc(/C=C2\Oc3ccc(NC(=O)Nc4cccnc4)cc3C2=O)c2c(N3CCC(C(=O)Nc4ccncc4)CC3)ccnc21 [Compound 263, 1-{1-methyl-3-[(Z)-{3-oxo-5-[(pyridin-3-ylcarbamoyl)amino]-1-benzofuran-2(3H)-ylidene}methyl]-1H-pyrrolo[2,3-b]pyridin-4-yl}-N-pyridin-4-ylpiperidine-4-carboxamide] | 
19 | 6.56 | 6.14 | 7.30 | 242 to 247 °C (dec.) | CNC(=O)Nc1ccc2c(c1)C(=O)/C(=C/c1cn(C)c3nccc(N4CC5CC4CO5)c13)O2 (stereo not shown) [Compound 284, 1-methyl-3-[(2Z)-2-{[1-methyl-4-(2-oxa-5-azabicyclo[2.2.1]hept-5-yl)-1H-pyrrolo[2,3-b]pyridin-3-yl]methylidene}-3-oxo-2,3-dihydro-1-benzofuran-5-yl]urea] | 

Row | SMILES | pIC50 (PI3Kα) | pIC50 (PI3Kγ) | pIC50 (mTOR; [1]) | melting point | pIC50 (mTOR)
20 | Cn1cc(/C=C2\Oc3cccc(O)c3C2=O)c2c(N3C4CCC3COC4)ccnc21 [Compound 151, (2Z)-4-hydroxy-2-{[1-methyl-4-(3-oxa-8-azabicyclo[3.2.1]oct-8-yl)-1H-pyrrolo[2,3-b]pyridin-3-yl]methylidene}-1-benzofuran-3(2H)-one] | 7.72 | 7.31 |  | 284 to 291 °C | 8.68
21 | CN(C)C(=O)C1CCN(c2ccnc3c2c(/C=C2\Oc4cccc(O)c4C2=O)cn3C)CC1 [Compound 145, 1-{3-[(Z)-(4-hydroxy-3-oxo-1-benzofuran-2(3H)-ylidene)methyl]-1-methyl-1H-pyrrolo[2,3-b]pyridin-4-yl}-N,N-dimethylpiperidine-4-carboxamide] | 7.42 | 7.13 | 9.22 | 185 to 195 °C | 
22 | Cn1cc(/C=C2\Oc3ccc(NC(=O)Nc4cccnc4)cc3C2=O)c2c(N3C4CCC3COC4)ccnc21 [Compound 280, 1-[(2Z)-2-{[1-methyl-4-(3-oxa-8-azabicyclo[3.2.1]oct-8-yl)-1H-pyrrolo[2,3-b]pyridin-3-yl]methylidene}-3-oxo-2,3-dihydro-1-benzofuran-5-yl]-3-pyridin-3-ylurea] | 6.75 | 6.00 |  | 250 to 255 °C (dec.) | 7.38
